Where “and” joins values, the source holds several entries; their conditions need not be identical. Equal entries are not always repeated.
System: human erythrocytes
Assay: Untargeted metabolomics and 13C-glucose tracing of enolase inhibitor treated erythrocytes
Assay type: cell-based
Details: 6h
Protocol: Freshly collected erythrocytes were washed, resuspended to 10% hematocrit in buffer [25mM HEPES (pH 7.4), 120mM NaCl, 5.4mM KCl, 1.8mM CaCl2, and 1mM NaH2PO4], incubated for 1 hour at 37°C, then centrifuged at 2000xg for 5 minutes at 4°C, resuspended in fresh wash buffer to 30-40% hematocrit, and split into 210µL aliquots of packed erythrocytes. […] All samples were incubated at 37°C shaking at 500 RPM. Triplicate samples of supernatants and packed erythrocytes were collected at 0, 0.5, 1, and 6-hour intervals and snap-frozen in liquid N2.
RBC and media samples were extracted at 1:10 and 1:20 dilutions, respectively, in 5:3:2 MeOH : MeCN:H2O v/v/v, and supernatants analyzed on a Thermo Vanquish UHPLC coupled to a Thermo Q Exactive mass spectrometer, as extensively described ([Nemkov et al., 2015]; [Nemkov et al., 2017]). The extraction buffer was supplemented with 40uM 3-^13C lactate to allow absolute quantification of lactate isotopologues, including lactate generated via glycolysis ([1,2,3-^13C3] enriched) vs. the pentose phosphate pathway ([2,3-^13C2] enriched), as described ([Reisz et al., 2016]). Metabolite assignments, peak area integration and isotopologues distributions were determined using Maven (Princeton University) ([Nemkov et al., 2015]; [Nemkov et al., 2017]).
Data were auto-scaled and normalized to zero-hour time points. Metabolites were removed from the dataset if greater than 50% of the samples contained missing values or the relative standard deviation among replicates exceeded 25%. Additionally, data was filtered using the interquartile range to reduce near-constant values from the experiment by 5%.
A principal component analysis of preprocessed data was plotted with the 95% confidence interval minimum volume enclosing ellipsoid for each respective group (MetaboAnalyst, cluster, plotly). A two-way repeated measures analysis of variance (ANOVA) was performed with multiple comparisons corrected for using a false discovery rate p-value cutoff of 0.05. Metabolite-Pathway analysis was performed using the R package of MetaboAnalyst, as previously described ([Xia and Wishart, 2010]). Metabolite-Protein nodal analysis was performed using omicsnet.ca and as previously described ([Zhou and Xia, 2018]).

[1] = treated erythrocytes, one value per replicate sample, polarity +
[2] = treated erythrocytes, one value per replicate sample, polarity -
[3] = treated erythrocytes, replicate samples

## CC(C)(C)C(=O)OCOP(=O)(OCOC(=O)C(C)(C)C)C1CC(O)N(O)C1=O (stereo not shown) [POMSF]
Replicate samples
  AMP level (metabolomics signal): 5.02E+05 and 4.09E+05 and 5.85E+05
  ATP level (metabolomics signal): 1.58E+04 and 9.84E+04 and 9.63E+04
  Adenine level (metabolomics signal): 7.75E+04 and 1.23E+05 and 1.12E+05
  Cytosine level (metabolomics signal): 8.05E+04 and 4.16E+04 and 5.19E+04
  L-alanine level (metabolomics signal): 8.35E+06 and 9.19E+06 and 8.31E+06
  L-arginine level (metabolomics signal): 2.95E+06 and 0.00E+00 and 2.67E+06
  L-asparagine level (metabolomics signal): 5.77E+06 and 5.60E+06 and 5.22E+06
  L-aspartate level (metabolomics signal): 1.31E+07 and 1.25E+07 and 1.18E+07
  L-cysteine level (metabolomics signal): 3.97E+05 and 1.14E+05 and 2.20E+05
  L-glutamate level (metabolomics signal): 7.50E+06 and 6.15E+06 and 6.74E+06
  L-glutamine level (metabolomics signal): 6.26E+07 and 5.76E+07 and 5.48E+07
  L-histidine level (metabolomics signal): 1.46E+06 and 1.38E+06 and 1.44E+06
  L-isoleucine level (metabolomics signal): 1.17E+07 and 1.31E+07 and 1.49E+07
  L-leucine level (metabolomics signal): 1.27E+08 and 1.58E+08 and 2.15E+08
  L-lysine level (metabolomics signal): 1.43E+06 and 1.33E+06 and 1.52E+06
  L-methionine level (metabolomics signal): 1.27E+07 and 1.48E+07 and 1.83E+07
  L-phenylalanine level (metabolomics signal): 6.89E+06 and 7.47E+06 and 8.39E+06
  L-proline level (metabolomics signal): 7.25E+07 and 6.63E+07 and 6.78E+07
  L-serine level (metabolomics signal): 4.64E+06 and 4.68E+06 and 4.28E+06
  L-threonine level (metabolomics signal): 6.95E+06 and 7.99E+06 and 7.08E+06
  L-tryptophan level (metabolomics signal): 1.43E+06 and 1.21E+06 and 1.71E+06
  L-tyrosine level (metabolomics signal): 1.74E+07 and 2.17E+07 and 2.50E+07
  L-valine level (metabolomics signal): 1.73E+08 (2×) and 1.89E+08
  dCMP level (metabolomics signal): 0.00E+00 and 1.19E+04 and 1.51E+04
  dTMP level (metabolomics signal): 2.61E+04 and 1.28E+06 and 7.09E+05
  glycine level (metabolomics signal): 1.74E+06 and 1.71E+06 and 1.54E+06
[1]
  N-Acyl-D-aspartate (C06380) metabolite signal: 6.19E+04 and 7.22E+04 and 7.18E+04
  Poly-gamma-D-glutamate (C05723) metabolite signal: 4.28E+07 and 3.89E+07 and 3.91E+07
[2]
  D-Ribitol 5-phosphate (C01068) metabolite signal: 0.00E+00 and 1.62E+04 and 1.65E+04
  D-glucono-1,5-lactone (C00198) metabolite signal: 1.21E+04 and 2.10E+05 and 2.85E+05
  L-Noradrenaline (C00547) metabolite signal: 1.67E+04 and 1.81E+04 and 3.13E+04
  Oxalosuccinate (C05379) metabolite signal: 3.74E+04 and 9.19E+04 and 1.02E+05
  Pyridoxamine (C00534) metabolite signal: 1.97E+04 and 7.81E+03 and 6.44E+03
  Thioredoxin disulfide (C00343) metabolite signal: 0.00E+00 and 8.04E+04 and 2.51E+04
[3]
  1-4-beta-D-Xylan (metabolite signal): 2.44E+04 and 1.72E+05 and 1.77E+05
  2-Hydroxyglutarate/Citramalate (C02630) metabolite signal: 8.76E+03 and 5.83E+04 and 8.08E+04
  5-6-Dihydrothymine (C00906) metabolite signal: 7.42E+04 and 3.03E+05 and 2.79E+05
  5-10-Methenyltetrahydrofolate (metabolite signal): 1.08E+05 and 1.27E+05 (2×)
  5-Hydroxyisourate (C11821) metabolite signal: 4.60E+06 and 7.03E+06 and 4.57E+06
  5-L-Glutamyl-taurine (metabolite signal): 1.69E+05 and 1.70E+05 and 1.66E+05
  5-Oxoproline (metabolite signal): 7.65E+04 and 8.27E+05 and 8.67E+05
  (S)(+)-Allantoin (C02350) metabolite signal: 1.76E+03 and 8.43E+03 and 0.00E+00
  Allantoate (C00499) metabolite signal: 5.45E+05 and 3.06E+05 and 4.74E+05
  Ascorbate (metabolite signal): 3.17E+02 and 8.49E+04 and 7.10E+04
  CMP-N-acetylneuraminate (metabolite signal): 0.00E+00 and 1.60E+04 and 3.30E+04
  Carnosine (metabolite signal): 1.68E+05 and 2.26E+05 and 1.66E+05
  Citrate (C00158) metabolite signal: 1.56E+03 and 1.77E+04 and 2.42E+04
  Creatine (metabolite signal): 1.60E+08 and 1.66E+08 and 1.57E+08
  Creatinine (metabolite signal): 2.21E+06 and 2.25E+06 and 2.28E+06
  Cys-Gly (metabolite signal): 7.06E+05 and 5.27E+05 and 4.56E+05
  D-Glucosamine (metabolite signal): 2.84E+05 and 2.82E+05 and 2.01E+05
  D-Glucose (C00031) metabolite signal: 3.39E+04 and 4.32E+06 and 3.64E+06
  D-Ribose (C00121) metabolite signal: 1.37E+04 and 1.43E+05 and 1.11E+05
  Dehydroascorbate (metabolite signal): 0.00E+00 and 3.73E+04 and 1.82E+04
  Dihydrofolate (metabolite signal): 1.85E+06 and 9.70E+05 and 1.18E+06
  Dimethylglycine (metabolite signal): 7.46E+05 and 8.20E+05 and 5.98E+05
  Diphosphate (C00013) metabolite signal: 0.00E+00 and 2.99E+04 and 2.16E+04
  Fumarate (C00122) metabolite signal: 3.34E+03 and 7.81E+04 and 1.06E+05
  Glutathione (C00051) metabolite signal: 4.14E+07 and 3.33E+07 and 3.37E+07
  Glutathione disulfide (metabolite signal): 0.00E+00 and 1.62E+05 and 3.64E+05
  Hypoxanthine (C00262) metabolite signal: 7.62E+03 and 4.26E+03 and 3.54E+03
  IMP (C00130) metabolite signal: 1.27E+04 and 8.26E+04 and 5.76E+04
  Inosine (C00294) metabolite signal: 1.21E+03 and 4.59E+04 and 5.50E+04
  L-Citrulline (metabolite signal): 2.43E+06 and 3.35E+06 and 2.92E+06
  L-Homoserine (metabolite signal): 1.60E+04 and 2.75E+05 and 2.50E+05
  Lactate (C01432) metabolite signal: 9.68E+05 and 1.69E+07 and 1.76E+07
  Malate (C00149) metabolite signal: 3.14E+03 and 1.07E+05 and 1.56E+05
  Mannitol (C00392) metabolite signal: 6.48E+03 and 1.86E+05 and 1.78E+05
  N-Acetylneuraminate (metabolite signal): 0.00E+00 and 1.33E+04 and 1.50E+04
  N-Glycoloyl-neuraminate (metabolite signal): 0.00E+00 and 1.02E+05 and 7.37E+04
  NAD+ (C00003) metabolite signal: 5.65E+04 and 4.00E+04 and 9.30E+04
  Nicotinamide (C00153) metabolite signal: 2.54E+07 and 3.18E+07 and 2.67E+07
  Ornithine (metabolite signal): 1.63E+06 and 1.68E+06 and 1.77E+06
  Oxaloacetate (C00036) metabolite signal: 1.48E+03 and 3.44E+04 and 3.60E+04
  Phosphoserine (metabolite signal): 5.41E+04 and 5.91E+04 and 2.74E+04
  Putrescine (metabolite signal): 3.78E+04 and 4.55E+04 and 4.46E+04
  Pyridoxal (C00250) metabolite signal: 3.76E+04 and 4.39E+04 and 5.36E+04
  Pyruvate (C00022) metabolite signal: 8.68E+04 and 2.04E+06 and 2.17E+06
  S-Glutathionyl-L-cysteine (metabolite signal): 0.00E+00 and 1.18E+05 and 1.30E+05
  Sedoheptulose 1-phosphate (C06222) metabolite signal: 0.00E+00 and 1.66E+04 and 1.92E+04
  Spermidine (metabolite signal): 6.37E+06 and 6.43E+06 and 6.27E+06
  Spermine (metabolite signal): 8.12E+06 and 8.01E+06 and 7.75E+06
  Succinate (C00042) metabolite signal: 1.40E+04 and 6.55E+04 and 4.55E+04
  Thymidine (C00214) metabolite signal: 4.03E+04 and 7.72E+03 and 7.98E+03
  UDP (C00015) metabolite signal: 0.00E+00 and 1.32E+05 and 7.27E+04
  UDP-N-acetyl-D-glucosamine (metabolite signal): 0.00E+00 and 6.00E+03 and 1.01E+04
  UDP-glucose (C00029) metabolite signal: 0.00E+00 and 8.80E+03 and 1.03E+04
  Urate (C00366) metabolite signal: 1.39E+04 and 2.30E+04 and 2.01E+04
  Xanthine (C00385) metabolite signal: 8.29E+04 and 9.81E+04 and 9.24E+04
  alpha-D-Glucosamine 1-phosphate (metabolite signal): 8.54E+05 and 1.67E+06 and 1.26E+06
  alpha-D-Ribose 1-phosphate (C00620) metabolite signal: 0.00E+00 and 2.89E+04 and 3.75E+04
  gamma-Glutamyl-gamma-aminobutyrate (metabolite signal): 5.89E+04 and 6.64E+04 and 6.00E+04
  gamma-L-Glutamyl-D-alanine (metabolite signal): 3.86E+02 and 3.06E+04 and 3.37E+04
  gamma-L-Glutamyl-L-cysteine (metabolite signal): 4.08E+03 and 2.68E+04 and 3.24E+04

From paper PMC8482815, “Targeting Host Glycolysis as a Strategy for Antimalarial Development” (Frontiers in Cellular and Infection Microbiology, 2021)
